According to patent US4395404A, “Synthetic thymosin β3 and β4 analogues” (George Washington University, priority 1982, dated 1983):
Where no end group is shown, it is not given here.

Tests used:
[1] = system: TdT activity in thymocytes; experiment: In vivo effect on TdT activity in thymocytes of hydrocortisone acetate (HCA) treated mice; design: species or system C57B1/6J mice; conditions: for TdT Specific Activity: daily for 11 days after 1.25 mg HCA at day 0, HCA-saline 6.4, normal 8.9; for TdT % Increase over HCA-saline: daily for 11 days after HCA
Protocol: The in vivo effect of thymosin fractions, i.e. thymosin β3 (designated HCA-thymosin β3), thymosin β4 (designated HCA-thymosin β4), thymosin fraction 5 (designated HCA-thymosin fr 5), compound of formula VI (designated HCA-synthetic C8 β4) and compound of formula XVI (designated HCA-synthetic C12 β3, on TdT activity in thymocytes of hydrocortisone acetate (HCA) treated C57B1/6J mice was assayed and determined according to the method of Hu, et al., 38, 1079 (1979).
For TdT activity determination [(following the Hu et al method (supra)], a 1.25 mg HCA injection per animal was carried out at day zero (0). Each injection was followed by daily treatment of the animal with the thymosin fractions (supra) or controls, i.e. no HCA and HCA-saline, for eleven (11) consecutive days. The increase in TdT specific activity (nmoles of dGTP incorporated per 10^8 thymocytes per hour) over that of HCA-saline treated animals was determined, the data compiled in columns 1-4 of Table 2.

Splenic lymphocytes = experiment: In vivo restoration of splenic mitogenic responses in HCA suppressed mice (tritiated thymidine incorporation); design: species or system C57B1/6J mice; conditions: for Mitogens PHA-P (cpm): HCA-saline 12,000, normal 30,000; for Mitogens Con A (cpm): HCA-saline 86,000, normal 210,000
Protocol: The in vivo effect of thymosin fractions (supra) on restoration of splenic mitogenic responses in HCA suppressed C57B1/6J mice was assayed and determined by the following method.
Splenic lymphocytes were removed sterilly, placed in plastic petri dishes containing RPMI 1640 (with 25 mM HEPES buffer, 100 μ/ml penicillin, 100 μg/ml streptomycin and 2mM L-glutamine) and a 64-mesh stainless steel wire screen. Single cell suspensions were obtained by further passage through a 25 GA needle. The cells were washed twice, counted using a Coulter Counter Model A and suspended to give a concentration of 6×10^6 leukocytes/ml. Cultures were prepared in flat bottom 96 well microtiter plates by placing 0.10 ml of the cell suspension into each well plus 0.05 ml 20% heat inactivated fetal calf serum (FCS) (resulting in 6×10^5 cells/well in 5% FCS final). Control cultures received 0.05 ml of RPMI 1640, and the stimulated cultures received 0.025 ml of RPMI 1640 containing various concentrations of thymosin and 0.025 ml of various concentrations of PHA-P (Difco, Detroit, Michigan), Con-A (Calbiochem, Oxnard, California), PWM (GIBCO, Grand Island, New York) or E. coli LPS (Difco, Detroit, Michigan) all made up in RPMI 1640. Cultures were pulsed by adding 1 uCi tritiated thymidine, 1.9 Ci/mM (Schwartz/Mann,Orangeburg, New Jersey), in 0.02 ml of RPMI 1640 8 hours before culture termination. Cultures were harvested utilizing a Multiple-Automated Sample Harvester (Microbiological Associates, Bethesda, Maryland). The resulting filter spots were dried and placed in glass liquid scintillation mini-vials to which was added 1 ml of scintillation cocktail. The vials were stoppered and the tritiated thymidine incorporation analyzed by scintillation spectrophotometry on an LKB liquid scintillation counter to provide Con A (cpm) and PHA-P (cpm). Processing of the data and necessary statistical tests were performed on a Wang 700 C Advanced Programming Calculator (Wang Labs, Tewksbury, Massachusetts) and are compiled in columns 1-2 and 5-6 of Table 2.

[2] = system: Peritoneal exudate cells (PEC) from guinea pig; experiment: Macrophage Migration Inhibitory Factor (MIF) assay, nonspecific inhibition of macrophage migration; format: cell-based, Hartley strain guinea pigs; conditions: less than 20% considered insignificant
Protocol: The standardized Macrophage Migration Inhibitory Factor (MIF) assay for natural thymosin β4, synthetic thymosin β4, compounds of formula XVI, (designated C12 β3), formula VI (designated C8 β4), formula IV (designated C10 β4), and formula VIII (designated C6 β4) was performed following the method of Thurman, et al., Lymphokines and Thymic Hormones: Their Potential Utilization in Cancer Therapeutics, ed. by Goldstein and Chirigos, Raven Press, New York, pp 145-157 (1981). Peritoneal exudate cells (PEC) from guinea pig were prepared in Hartley strain guinea pigs by injecting 20-30 ml of sterile mineral oil 3-5 days prior to the assay. On the day of the assay, the guinea pigs were anesthetized and injected i.p. with 50 ml of RPMI-1640. Following abdominal massage, the peritoneum was opened with a one inch incision in the umbilical region and the peritoneal fluids withdrawn. The peritoneal fluids were centrifuged at 200×g for 10 min and the pelleted cells resuspended in a small volume of RPMI for transfer to clean tubes. Following three more washes, the cells were resuspended, counted and adjusted to 45×10^6/ml for use. In some experiments mouse PEC were used in place of guinea pig PEC. The mouse PEC were induced in BALB/c normal or nude mice by injecting 1 ml of mineral oil i.p. 3 days prior obtaining the cells by washing the peritoneum with 5 ml of RPMI 1640. In some experiments macrophage-like cell lines, WEHI-3 and FC-1, were used in place of PEC. The WEHI-3 cells migrate and have been reported to respond to migration inhibitory factor (MIF). Likewise, the FC-1 cells are also migratory and respond to MIF. […] The percent nonspecific inhibition (PNSI) was calculated as: [formula] […] Percent nonspecific inhibition of migration of less than 20% was also considered insignificant. The date from these experiments are compiled in Table 3.

T-cell populations = conditions: partially purified; Low and Goldstein 1978; cited from earlier work
[3] = system: TdT positive cells in the thymus; conditions: following steroid induced immunosuppression; Low et al. 1981; cited from earlier work
macrophages = conditions: Thurman et al. 1981; cited from earlier work

| Substance | TdT Specific Activity ([1]; 10 μg/injection) | TdT % Increase over HCA-saline ([1]; 10 μg/injection) [%] | Mitogens PHA-P (cpm) (Splenic lymphocytes; 10 μg/injection) | Mitogens Con A (cpm) (Splenic lymphocytes; 10 μg/injection) | PNSI (percent nonspecific inhibition of macrophage migration) ([2]; 0.0005 nmoles/ml) [%] | PNSI (percent nonspecific inhibition of macrophage migration) ([2]; 0.005 nmoles/ml) [%] | PNSI (percent nonspecific inhibition of macrophage migration) ([2]; 0.05 nmoles/ml) [%] | PNSI (percent nonspecific inhibition of macrophage migration) ([2]; 0.5 nmoles/ml) [%] | TdT Specific Activity ([1]; 1 μg/injection) | TdT % Increase over HCA-saline ([1]; 1 μg/injection) [%] | Mitogens PHA-P (cpm) (Splenic lymphocytes; 1 μg/injection) | Mitogens Con A (cpm) (Splenic lymphocytes; 1 μg/injection) | Induction of TdT positive cells in T-cell populations (T-cell populations) | Reappearance of TdT positive cells in the thymus [3] | Migration of macrophages (macrophages) |
| --- | --- | --- | --- | --- | --- | --- | --- | --- | --- | --- | --- | --- | --- | --- | --- |
| QAGESDEITAKT [C12 β3, L-Glutaminyl-L-alanyl-glycyl-L-glutamyl-L-seryl-L-aspartyl-L-glutamyl-L-isoleucyl-L-threonyl-L-alanyl-L-lysyl-L-threonine] | 8.2 nmoles of dGTP incorporated pe | 28 | 65,000 cpm | 110,000 cpm | 23.5 | 24.7 | 29.7 | 30.2 | – | – | – | – | – | – | – |
| Synthetic thymosin β4: synthetic thymosin β4, tested beside natural thymosin β4 in the MIF assay (SDKPDMAEIEKFDKSKLKKTETQEKNPLPSKETIEQEKQAGES; Thymosin beta-4 synthetic; UniProt P62328 2-44, looked up) [reference compound] | – | – | – | – | – | 25.0 | 25.9 | 30.3 | – | – | – | – | – | – | – |
| IEQEKQQAGES [C10 β4, L-Isoleucyl-L-glutamyl-L-glutaminyl-L-glutamyl-L-lysyl-L-glutaminyl-L-glutaminyl-L-alanyl-glycyl-L-glutamyl-L-serine] | – | – | – | – | -5.3 | 10.7 | 18.8 | 21.6 | – | – | – | – | – | – | – |
| thymosin β3 [HCA--Thymosin β3, reference compound] | – | – | – | – | – | – | – | – | 9.7 nmoles of dGTP incorporated pe | 52 | 27,000 cpm | 120,000 cpm | induce TdT positive cells | accelerate the reappearance of TdT positive cells in the thymus | inhibit the migration of macrophages |
| KQAGES [C6 β4, L-Lysyl-L-glutaminyl-L-alanyl-glycyl-L-glutamyl-L-serine] | – | – | – | – | 3.1 | -5.1 | 15.2 | 18.3 | – | – | – | – | – | – | – |
| QEKQAGES [C8 β4, L-glutaminyl-L-glutamyl-L-lysyl-L-glutaminyl-L-alanyl-glycyl-L-glutamyl-L-serine] | 7.6 nmoles of dGTP incorporated pe | 19 | 11,000 cpm | 140,000 cpm | 5.5 | 27.0 | 25.4 | 24.1 | – | – | – | – | – | – | – |
| thymosin β4 [Natural thymosin β4, reference compound] | – | – | – | – | – | 23.1 | 29.2 | 37.6 | 8.8 nmoles of dGTP incorporated pe | 38 | 10,000 cpm | 125,000 cpm | induce TdT positive cells | accelerate the reappearance of TdT positive cells in the thymus | inhibit the migration of macrophages |
